Laboratory results taken from patent US20190233884A1 (University of Southern California, priority 2016, published 2019).

Test system: patients with refractory metastatic colorectal cancer (mCRC)
Test: PFS, OS and disease control in the training (evaluation) cohort of refractory mCRC patients receiving TAS-102 (n=52, Japan), by baseline characteristics, SNP genotype and toxicity
Type: in vivo, human
Conditions: for OS (median) / PFS (median): evaluation cohort (JPN TAS-102); for Disease Control CR/PR/SD, patients n (%) / Median OS (95% CI) / Median PFS (95% CI) / PD, patients n (%) / HR OS (95% CI) / HR PFS (95% CI) / Disease Control Rate SD, patients n (%): evaluation cohort
Procedure: All patients underwent the treatment in salvage-line setting. […]
Genomic DNA was extracted from peripheral whole blood in patients of all cohorts using the QIAmp Kit (Qiagen, Valencia, Calif., USA) according to the manufacturer's protocol (www.qiagen.com). The candidate SNPs were genotyped using PCR-based direct DNA sequence analysis by ABI 3100A Capillary Genetic Analyzer and Sequencing Scanner v1.0 (Applied Biosystems). Amplification of extracted DNA was carried out using both forward and reverse primers for each gene polymorphism as shown in Table 1. […] The investigators analyzing SNPs were blinded to the clinical data of the study patients.
The primary endpoint in this study was progression-free survival (PFS), and the secondary endpoints were overall survival (OS) and disease control rate (DCR). PFS was calculated from the date of starting treatment to the first observation of disease progression or death from any cause. If a patient had no disease progression or death, PFS was censored at the date of last follow up. OS was calculated from the date of starting treatment until the date of death from any cause or the date of the last follow-up, at which point OS was censored. The disease control rate (DCR) was defined as the proportion of patients who achieved a stable disease (SD) or […] according to RECISTv1.1. Chi-square test was used to examine the difference in baseline patient characteristics among the three cohorts. Allelic distribution of all SNPs by ethnicity for deviation from Hardy-Weinberg equilibrium and the allelic frequencies of SNPs were tested using the Chi-square tests with one degree of freedom. The associations between candidate SNPs and disease control, and toxicities were examined using contingency tables and Fisher's exact test. The associations of SNPs with PFS and OS were analysed using Kaplan-Meier curves and the log-rank test. Because the true mode of inheritance of candidate SNPs was not established yet, a codominant or dominant genetic model if appropriate was considered.
All patients underwent the treatment in salvage-line setting. […] In all patients, adverse events were graded according to the Common Terminology Criteria for Adverse Events, version 4.0. […]
Genomic DNA was extracted from peripheral whole blood in patients of all cohorts using the QIAmp Kit (Qiagen, Valencia, Calif., USA) according to the manufacturer's protocol (www.qiagen.com). The candidate SNPs were tested using PCR-based direct DNA sequence analysis by ABI 3100A Capillary Genetic Analyzer and Sequencing Scanner v1.0 (Applied Biosystems). […] The investigators analyzing SNPs were blinded to the clinical data.
The primary endpoint in this study was progression-free survival (PFS), and the secondary endpoints were overall survival (OS) and disease control rate (DCR).

[1] = PCNA rs25406 G/A vs G/G, univariate
[2] = Pin1 rs2233678 G/C vs G/G, multivariable
[3] = Pin1 rs2233678 G/C vs G/G, univariate
[4] = Pin1 rs2233679 Any T vs C/C, multivariable
[5] = Pin1 rs2233679 Any T vs C/C, univariate
[6] = Pin1 rs2233679 C/T vs C/C, multivariable
[7] = Pin1 rs2233679 C/T vs C/C, univariate
[8] = Pin1 rs2233679 T/T vs C/C, multivariable
[9] = Pin1 rs2233679 T/T vs C/C, univariate
[10] = RAD51 rs1801320 G/C vs G/G, multivariable
[11] = RAD51 rs1801320 G/C vs G/G, univariate
[12] = ATM rs609429 Any G vs C/C (Ref.), multivariable
[13] = ATM rs609429 Any G vs C/C (Ref.), univariate
[14] = ATM rs609429 G/C vs C/C (Ref.), multivariable
[15] = ATM rs609429 G/C vs C/C (Ref.), univariate
[16] = ATM rs609429 G/G vs C/C (Ref.), multivariable
[17] = ATM rs609429 G/G vs C/C (Ref.), univariate

Trifluridine/tipiracil [TAS-102]
OS HR (95% CI)† [1]: 0.62 (0.22, 1.71) | PFS HR (95% CI) † [1]: 0.68 (0.32, 1.41) | OS median, months (95% CI) (PCNA rs25406 G/G): 8.3 (2.7, 14.8+) months | PFS median, months (95% CI) (PCNA rs25406 G/G): 2.1 (1.6, 4.2) months | OS median, months (95% CI) (Pin1 rs2233678 G/C): 4.2 (2.7, 5.7+) months | PFS median, months (95% CI) (Pin1 rs2233678 G/C): 1.7 (1.6, 1.8+) months | OS HR (95% CI)‡ [2]: 7.21 (1.47, 35.33) | PFS HR (95% CI) ‡ [2]: 5.08 (1.11, 23.23) | OS HR (95% CI)† [3]: 4.23 (0.92, 19.42) | PFS HR (95% CI) † [3]: 3.66 (0.79, 16.99) | OS median, months (95% CI) (Pin1 rs2233678 G/G): 8.3 (6.3, 15.6+) months | PFS median, months (95% CI) (Pin1 rs2233678 G/G): 2.9 (2.1, 3.4) months | OS median, months (95% CI) (Pin1 rs2233679 Any T): 8.3 (6.3, 14.8+) months | PFS median, months (95% CI) (Pin1 rs2233679 Any T): 3.3 (1.8, 3.7) months | OS HR (95% CI)‡ [4]: 1.05 (0.43, 2.54) | PFS HR (95% CI) ‡ [4]: 1.01 (0.53, 1.94) | OS HR (95% CI)† [5]: 0.95 (0.40, 2.26) | PFS HR (95% CI) † [5]: 0.84 (0.45, 1.57) | OS median, months (95% CI) (Pin1 rs2233679 C/C): 7.2 (4.9, 15.6+) months | PFS median, months (95% CI) (Pin1 rs2233679 C/C): 2.3 (1.8, 3.4) months | OS median, months (95% CI) (Pin1 rs2233679 C/T): 8.3 (6.3, 12.4+) months | PFS median, months (95% CI) (Pin1 rs2233679 C/T): 2.9 (1.8, 3.7) months | OS HR (95% CI)‡ [6]: 1.04 (0.41, 2.64) | PFS HR (95% CI) ‡ [6]: 1.03 (0.52, 2.03) | OS HR (95% CI)† [7]: 1.05 (0.41, 2.65) | PFS HR (95% CI) † [7]: 0.90 (0.46, 1.75) | OS median, months (95% CI) (Pin1 rs2233679 T/T): 8.1 (3.1, 14.8+) months | PFS median, months (95% CI) (Pin1 rs2233679 T/T): 3.4 (1.6, 4.6) months | OS HR (95% CI)‡ [8]: 1.08 (0.24, 4.91) | PFS HR (95% CI) ‡ [8]: 0.95 (0.34, 2.67) | OS HR (95% CI)† [9]: 0.74 (0.20, 2.75) | PFS HR (95% CI) † [9]: 0.70 (0.28, 1.79) | OS median, months (95% CI) (RAD51 rs1801320 G/C): 6.3 (1.4, 8.4+) months | PFS median, months (95% CI) (RAD51 rs1801320 G/C): 3.2 (0.9, 3.4) months | OS HR (95% CI)‡ [10]: 2.28 (0.81, 6.48) | PFS HR (95% CI) ‡ [10]: 1.34 (0.60, 3.00) | OS HR (95% CI)† [11]: 2.19 (0.78, 6.14) | PFS HR (95% CI) † [11]: 1.57 (0.70, 3.50) | OS median, months (95% CI) (RAD51 rs1801320 G/G): 8.3 (5.7, 15.6+) months | PFS median, months (95% CI) (RAD51 rs1801320 G/G): 2.5 (2.0, 4.1) months | PFS (TAS-102 cohort n=52, combined hENT1 and OCT2/MATE1 variants: poor (11)): 47.0 days | PFS (combined hENT1 and OCT2/MATE1 analysis: overall (52)): 80 days | PFS (combined hENT1 and OCT2/MATE1 variants: excellent (21)): 104.0 days | PFS (combined hENT1 and OCT2/MATE1 variants: fair (16)): 62.0 days | PFS (combined hENT1 and OCT2/MATE1 variants: good (4)): 80 days | OS (median) (ATM rs609429 C/C (n=14)): 4.4 months | OS (median) (ATM rs609429 any G allele (G/C or G/G, n=38)): 8.7 months | PFS (median) (XRCC3 rs861539 G/A (n=17)): 3.8 months | PFS (median) (XRCC3 rs861539 G/G (n=35)): 2.3 months | Disease Control CR/PR/SD, patients n (%) (ATM rs609429 Any G): 10 (29%) | Median OS (95% CI) (ATM rs609429 Any G): 8.7 (6.3, 15.6+) months | Median PFS (95% CI) (ATM rs609429 Any G): 2.7 (2.1, 3.4) months | PD, patients n (%) (ATM rs609429 Any G): 25 (71%) | HR OS (95% CI) [12]: 0.24 (0.07, 0.80) | HR PFS (95% CI) [12]: 1.37 (0.57, 3.26) | HR OS (95% CI) [13]: 0.37 (0.14, 0.99) | HR PFS (95% CI) [13]: 1.53 (0.70, 3.35) | Disease Control CR/PR/SD, patients n (%) (ATM rs609429 C/C): 5 (45%) | Median OS (95% CI) (ATM rs609429 C/C): 4.4 (3.1, 8.3+) months | Median PFS (95% CI) (ATM rs609429 C/C): 3.3 (1.6, 6.0+) months | PD, patients n (%) (ATM rs609429 C/C): 6 (55%) | Disease Control CR/PR/SD, patients n (%) (ATM rs609429 G/C): 8 (32%) | Median OS (95% CI) (ATM rs609429 G/C): 12.4 (6.3, 15.6+) months | Median PFS (95% CI) (ATM rs609429 G/C): 2.9 (1.8, 3.4) months | PD, patients n (%) (ATM rs609429 G/C): 17 (68%) | HR OS (95% CI) [14]: 0.19 (0.05, 0.68) | HR PFS (95% CI) [14]: 1.30 (0.53, 3.19) | HR OS (95% CI) [15]: 0.32 (0.11, 0.91) | HR PFS (95% CI) [15]: 1.53 (0.68, 3.43) | Disease Control CR/PR/SD, patients n (%) (ATM rs609429 G/G): 2 (20%) | Median OS (95% CI) (ATM rs609429 G/G): 8.7 (1.2, 14.8+) months | Median PFS (95% CI) (ATM rs609429 G/G): 2.6 (1.2, 4.1) months | PD, patients n (%) (ATM rs609429 G/G): 8 (80%) | HR OS (95% CI) [16]: 0.39 (0.10, 1.54) | HR PFS (95% CI) [16]: 1.56 (0.56, 4.37) | HR OS (95% CI) [17]: 0.52 (0.16, 1.73) | HR PFS (95% CI) [17]: 1.55 (0.59, 4.04) | Disease Control Rate SD, patients n (%) (ATR rs2227928 A/A): 3 (20%) | PD, patients n (%) (ATR rs2227928 A/A): 12 (80%) | Disease Control Rate SD, patients n (%) (ATR rs2227928 A/G): 7 (32%) | PD, patients n (%) (ATR rs2227928 A/G): 15 (68%) | Disease Control Rate SD, patients n (%) (ATR rs2227928 Any G): 12 (39%) | PD, patients n (%) (ATR rs2227928 Any G): 19 (61%) | Disease Control Rate SD, patients n (%) (ATR rs2227928 G/G): 5 (56%) | PD, patients n (%) (ATR rs2227928 G/G): 4 (44%) | Disease Control Rate SD, patients n (%) (BRCA1 rs16941 Any C): 8 (30%) | PD, patients n (%) (BRCA1 rs16941 Any C): 19 (70%) | Disease Control Rate SD, patients n (%) (BRCA1 rs16941 C/C): 1 (20%) | PD, patients n (%) (BRCA1 rs16941 C/C): 4 (80%) | Disease Control Rate SD, patients n (%) (BRCA1 rs16941 T/C): 7 (32%)
